Key:
[1] = target: ABL1(T315I)-nonphosphorylated (Homo sapiens (Human), UniProt P00519, T315I); experiment: KINOMEscan scanMAX; type: binding; settings: 2000 nM; read-out: Percent Control
ACVR1B = ACVR1B (Homo sapiens (Human), UniProt P36896); experiment: KINOMEscan scanMAX; type: binding; settings: 2000 nM; read-out: Percent Control
ADCK3 (CABC1) = ADCK3 (CABC1) (Homo sapiens (Human), UniProt Q8NI60); experiment: KINOMEscan scanMAX; type: binding; settings: 2000 nM; read-out: Percent Control
ANKK1 = ANKK1 (Homo sapiens (Human), UniProt Q8NFD2); experiment: KINOMEscan scanMAX; type: binding; settings: 2000 nM; read-out: Percent Control
AURKB = AURKB (Homo sapiens (Human), UniProt Q96GD4); experiment: KINOMEscan scanMAX; type: binding; settings: 2000 nM; read-out: Percent Control
Chain of AURKB (Q96GD4 whole entry): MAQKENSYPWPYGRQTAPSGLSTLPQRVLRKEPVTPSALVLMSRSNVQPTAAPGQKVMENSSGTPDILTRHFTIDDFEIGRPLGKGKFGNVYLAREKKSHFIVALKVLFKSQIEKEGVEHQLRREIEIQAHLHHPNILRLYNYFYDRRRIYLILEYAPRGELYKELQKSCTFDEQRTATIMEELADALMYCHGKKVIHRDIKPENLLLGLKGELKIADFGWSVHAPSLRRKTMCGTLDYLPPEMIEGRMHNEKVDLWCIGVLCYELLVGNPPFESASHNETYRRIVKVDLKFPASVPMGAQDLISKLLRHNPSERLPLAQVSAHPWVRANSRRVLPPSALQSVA

BIKE (BMP2K) = BIKE (BMP2K) (Homo sapiens (Human), UniProt Q9NSY1); experiment: KINOMEscan scanMAX; type: binding; settings: 2000 nM; read-out: Percent Control
CAMKK2 = CAMKK2 (Homo sapiens (Human), UniProt Q96RR4); experiment: KINOMEscan scanMAX; type: binding; settings: 2000 nM; read-out: Percent Control
Chain of CAMKK2 (Q96RR4 whole entry): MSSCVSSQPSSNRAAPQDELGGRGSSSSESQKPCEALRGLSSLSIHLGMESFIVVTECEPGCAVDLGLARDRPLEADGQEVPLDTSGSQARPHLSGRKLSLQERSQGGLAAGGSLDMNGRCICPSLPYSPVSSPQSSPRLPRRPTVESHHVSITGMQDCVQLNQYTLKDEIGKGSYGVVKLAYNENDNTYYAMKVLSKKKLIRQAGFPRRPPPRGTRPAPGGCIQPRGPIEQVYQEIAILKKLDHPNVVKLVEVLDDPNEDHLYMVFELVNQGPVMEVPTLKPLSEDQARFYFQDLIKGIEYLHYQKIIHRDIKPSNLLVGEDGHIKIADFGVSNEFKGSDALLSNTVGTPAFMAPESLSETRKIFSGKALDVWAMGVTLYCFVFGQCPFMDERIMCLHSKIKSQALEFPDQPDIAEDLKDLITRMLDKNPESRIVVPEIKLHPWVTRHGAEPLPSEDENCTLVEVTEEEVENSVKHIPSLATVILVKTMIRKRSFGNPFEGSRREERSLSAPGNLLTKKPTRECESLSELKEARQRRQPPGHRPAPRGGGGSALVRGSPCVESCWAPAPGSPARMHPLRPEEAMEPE

CDKL1 = CDKL1 (Homo sapiens (Human), UniProt Q00532); experiment: KINOMEscan scanMAX; type: binding; settings: 2000 nM; read-out: Percent Control
Chain of CDKL1 (Q00532 whole entry): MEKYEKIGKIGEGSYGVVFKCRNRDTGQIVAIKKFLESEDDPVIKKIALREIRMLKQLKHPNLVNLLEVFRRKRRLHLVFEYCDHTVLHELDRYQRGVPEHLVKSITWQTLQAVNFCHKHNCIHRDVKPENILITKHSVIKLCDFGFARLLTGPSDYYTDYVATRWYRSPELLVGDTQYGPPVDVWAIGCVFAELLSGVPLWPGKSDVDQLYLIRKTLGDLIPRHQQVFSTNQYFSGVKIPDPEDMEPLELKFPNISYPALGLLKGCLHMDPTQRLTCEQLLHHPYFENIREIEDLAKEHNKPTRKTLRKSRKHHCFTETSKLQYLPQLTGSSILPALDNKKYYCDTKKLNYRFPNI

CSNK2A1 = CSNK2A1 (Homo sapiens (Human), UniProt P68400); experiment: KINOMEscan scanMAX; type: binding; settings: 2000 nM; read-out: Percent Control
Chain of CSNK2A1 (P68400 whole entry): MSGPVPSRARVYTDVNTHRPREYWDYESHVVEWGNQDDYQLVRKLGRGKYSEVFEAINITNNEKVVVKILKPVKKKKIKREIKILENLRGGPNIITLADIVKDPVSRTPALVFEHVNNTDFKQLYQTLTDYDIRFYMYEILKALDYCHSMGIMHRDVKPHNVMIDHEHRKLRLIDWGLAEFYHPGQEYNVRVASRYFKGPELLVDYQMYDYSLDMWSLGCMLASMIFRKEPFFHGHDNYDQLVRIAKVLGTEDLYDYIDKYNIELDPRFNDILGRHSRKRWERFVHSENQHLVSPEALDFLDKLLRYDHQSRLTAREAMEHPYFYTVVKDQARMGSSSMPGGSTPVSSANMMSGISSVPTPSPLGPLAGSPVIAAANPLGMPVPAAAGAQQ

DCAMKL1 (DCLK1) = DCAMKL1 (DCLK1) (Homo sapiens (Human), UniProt O15075); experiment: KINOMEscan scanMAX; type: binding; settings: 2000 nM; read-out: Percent Control
DCAMKL3 (DCLK3) = DCAMKL3 (DCLK3) (Homo sapiens (Human), UniProt Q9C098); experiment: KINOMEscan scanMAX; type: binding; settings: 2000 nM; read-out: Percent Control
EGFR(L747-T751del, Sins) = EGFR(L747-T751del, Sins) (Homo sapiens (Human), UniProt P00533, DEL747-751/INS746S); experiment: KINOMEscan scanMAX; type: binding; settings: 2000 nM; read-out: Percent Control
GRK1 = GRK1 (Homo sapiens (Human), UniProt Q15835); experiment: KINOMEscan scanMAX; type: binding; settings: 2000 nM; read-out: Percent Control
Chain of GRK1 (Q15835 whole entry): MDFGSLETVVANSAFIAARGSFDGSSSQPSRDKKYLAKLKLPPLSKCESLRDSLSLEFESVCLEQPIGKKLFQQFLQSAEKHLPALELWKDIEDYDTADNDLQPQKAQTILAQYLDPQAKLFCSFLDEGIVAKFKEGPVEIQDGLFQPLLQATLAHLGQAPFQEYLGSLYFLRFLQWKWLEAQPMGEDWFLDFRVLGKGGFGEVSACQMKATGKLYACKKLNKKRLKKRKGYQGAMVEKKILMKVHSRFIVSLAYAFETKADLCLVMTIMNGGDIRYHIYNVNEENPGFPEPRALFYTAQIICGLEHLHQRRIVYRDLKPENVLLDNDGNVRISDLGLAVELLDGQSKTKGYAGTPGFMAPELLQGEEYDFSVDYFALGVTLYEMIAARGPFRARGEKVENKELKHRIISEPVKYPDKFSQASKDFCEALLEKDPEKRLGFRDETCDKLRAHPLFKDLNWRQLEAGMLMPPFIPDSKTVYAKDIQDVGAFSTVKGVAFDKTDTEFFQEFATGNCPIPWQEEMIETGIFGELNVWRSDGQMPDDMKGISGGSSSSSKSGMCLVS

ICK = ICK (Homo sapiens (Human), UniProt Q9UPZ9); experiment: KINOMEscan scanMAX; type: binding; settings: 2000 nM; read-out: Percent Control
KIT(V559D) = KIT(V559D) (Homo sapiens (Human), UniProt P10721, V559D); experiment: KINOMEscan scanMAX; type: binding; settings: 2000 nM; read-out: Percent Control
Chain of KIT(V559D) (P10721 26-976 V559D): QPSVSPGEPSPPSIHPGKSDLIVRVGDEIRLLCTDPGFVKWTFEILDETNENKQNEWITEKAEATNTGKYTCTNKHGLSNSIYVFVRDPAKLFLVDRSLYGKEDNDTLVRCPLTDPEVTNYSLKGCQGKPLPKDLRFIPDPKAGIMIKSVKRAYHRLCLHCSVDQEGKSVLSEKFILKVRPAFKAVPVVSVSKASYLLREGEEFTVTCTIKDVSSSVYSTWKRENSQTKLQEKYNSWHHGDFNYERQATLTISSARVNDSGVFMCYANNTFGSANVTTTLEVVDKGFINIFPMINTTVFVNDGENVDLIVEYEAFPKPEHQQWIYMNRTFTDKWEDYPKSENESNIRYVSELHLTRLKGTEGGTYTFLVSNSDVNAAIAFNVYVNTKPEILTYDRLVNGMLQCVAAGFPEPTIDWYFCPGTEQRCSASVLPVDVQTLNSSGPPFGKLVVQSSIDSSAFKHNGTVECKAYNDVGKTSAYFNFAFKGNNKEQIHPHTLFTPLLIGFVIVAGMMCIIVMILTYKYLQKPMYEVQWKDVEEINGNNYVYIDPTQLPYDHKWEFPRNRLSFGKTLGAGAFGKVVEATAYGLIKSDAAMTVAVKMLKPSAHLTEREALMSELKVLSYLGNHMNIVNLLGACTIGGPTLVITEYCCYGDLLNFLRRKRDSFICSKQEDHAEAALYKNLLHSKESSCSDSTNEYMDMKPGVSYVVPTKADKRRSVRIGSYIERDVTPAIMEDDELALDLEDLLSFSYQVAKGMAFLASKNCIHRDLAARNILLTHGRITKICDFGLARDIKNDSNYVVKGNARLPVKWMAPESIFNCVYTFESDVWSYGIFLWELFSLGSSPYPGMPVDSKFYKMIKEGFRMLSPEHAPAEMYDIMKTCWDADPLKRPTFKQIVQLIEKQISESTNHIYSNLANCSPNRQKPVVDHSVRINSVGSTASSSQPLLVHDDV

LTK = LTK (Homo sapiens (Human), UniProt P29376); experiment: KINOMEscan scanMAX; type: binding; settings: 2000 nM; read-out: Percent Control
Chain of LTK (P29376 17-864): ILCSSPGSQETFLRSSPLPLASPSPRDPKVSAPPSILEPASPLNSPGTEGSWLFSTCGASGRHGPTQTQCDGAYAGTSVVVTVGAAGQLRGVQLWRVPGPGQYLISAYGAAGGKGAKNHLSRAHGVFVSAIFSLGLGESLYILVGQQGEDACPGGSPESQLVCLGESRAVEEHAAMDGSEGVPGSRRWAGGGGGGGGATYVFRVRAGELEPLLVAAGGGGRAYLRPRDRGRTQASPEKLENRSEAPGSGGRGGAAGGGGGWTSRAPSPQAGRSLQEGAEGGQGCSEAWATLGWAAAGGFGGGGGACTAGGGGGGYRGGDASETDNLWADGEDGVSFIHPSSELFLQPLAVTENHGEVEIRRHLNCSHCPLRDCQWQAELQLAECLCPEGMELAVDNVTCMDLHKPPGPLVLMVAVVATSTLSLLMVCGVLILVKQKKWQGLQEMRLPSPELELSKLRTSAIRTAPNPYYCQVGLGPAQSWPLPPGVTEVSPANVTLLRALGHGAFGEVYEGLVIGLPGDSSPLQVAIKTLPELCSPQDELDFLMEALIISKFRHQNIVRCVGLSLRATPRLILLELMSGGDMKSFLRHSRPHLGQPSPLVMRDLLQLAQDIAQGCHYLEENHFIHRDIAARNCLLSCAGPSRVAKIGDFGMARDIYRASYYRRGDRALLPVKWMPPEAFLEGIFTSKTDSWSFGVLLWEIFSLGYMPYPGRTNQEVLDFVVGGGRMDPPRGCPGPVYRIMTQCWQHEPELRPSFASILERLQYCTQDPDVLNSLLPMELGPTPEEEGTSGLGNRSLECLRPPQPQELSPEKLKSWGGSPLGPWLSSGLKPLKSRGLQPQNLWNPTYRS

MEK4 (MAP2K4) = MEK4 (MAP2K4) (Homo sapiens (Human), UniProt P45985); experiment: KINOMEscan scanMAX; type: binding; settings: 2000 nM; read-out: Percent Control
Chain of MEK4 (MAP2K4) (P45985 whole entry): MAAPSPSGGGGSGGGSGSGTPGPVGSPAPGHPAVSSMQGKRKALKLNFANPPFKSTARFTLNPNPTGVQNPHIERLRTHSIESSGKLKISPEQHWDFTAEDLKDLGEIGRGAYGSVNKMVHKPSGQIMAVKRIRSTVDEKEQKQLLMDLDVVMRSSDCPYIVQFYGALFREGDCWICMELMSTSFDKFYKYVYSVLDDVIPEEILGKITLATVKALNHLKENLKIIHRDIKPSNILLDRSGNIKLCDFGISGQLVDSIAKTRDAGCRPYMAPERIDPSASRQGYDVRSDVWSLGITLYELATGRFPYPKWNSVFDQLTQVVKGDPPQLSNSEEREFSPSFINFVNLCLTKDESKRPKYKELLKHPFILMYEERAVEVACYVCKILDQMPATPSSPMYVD

NDR2 (STK38L) = NDR2 (STK38L) (Homo sapiens (Human), UniProt Q9Y2H1); experiment: KINOMEscan scanMAX; type: binding; settings: 2000 nM; read-out: Percent Control
NEK3 = NEK3 (Homo sapiens (Human), UniProt P51956); experiment: KINOMEscan scanMAX; type: binding; settings: 2000 nM; read-out: Percent Control
NEK4 = NEK4 (Homo sapiens (Human), UniProt P51957); experiment: KINOMEscan scanMAX; type: binding; settings: 2000 nM; read-out: Percent Control
PAK3 = PAK3 (Homo sapiens (Human), UniProt O75914); experiment: KINOMEscan scanMAX; type: binding; settings: 2000 nM; read-out: Percent Control
PDPK1 = PDPK1 (Homo sapiens (Human), UniProt O15530); experiment: KINOMEscan scanMAX; type: binding; settings: 2000 nM; read-out: Percent Control
PIK3CD = PIK3CD (Homo sapiens (Human), UniProt O00329); experiment: KINOMEscan scanMAX; type: binding; settings: 2000 nM; read-out: Percent Control
PKMYT1 = PKMYT1 (Homo sapiens (Human), UniProt Q99640); experiment: KINOMEscan scanMAX; type: binding; settings: 2000 nM; read-out: Percent Control
PLK1 = PLK1 (Homo sapiens (Human), UniProt P53350); experiment: KINOMEscan scanMAX; type: binding; settings: 2000 nM; read-out: Percent Control
PLK2 = PLK2 (Homo sapiens (Human), UniProt Q9NYY3); experiment: KINOMEscan scanMAX; type: binding; settings: 2000 nM; read-out: Percent Control
PRKCH = PRKCH (Homo sapiens (Human), UniProt P24723); experiment: KINOMEscan scanMAX; type: binding; settings: 2000 nM; read-out: Percent Control
RET(V804M) = RET(V804M) (Homo sapiens (Human), UniProt P07949, V804M); experiment: KINOMEscan scanMAX; type: binding; settings: 2000 nM; read-out: Percent Control
S6K1 (RPS6KB1) = S6K1 (RPS6KB1) (Homo sapiens (Human), UniProt P23443); experiment: KINOMEscan scanMAX; type: binding; settings: 2000 nM; read-out: Percent Control
SRPK1 = SRPK1 (Homo sapiens (Human), UniProt Q96SB4); experiment: KINOMEscan scanMAX; type: binding; settings: 2000 nM; read-out: Percent Control
TTK = TTK (Homo sapiens (Human), UniProt P33981); experiment: KINOMEscan scanMAX; type: binding; settings: 2000 nM; read-out: Percent Control
YES (YES1) = YES (YES1) (Homo sapiens (Human), UniProt P07947); experiment: KINOMEscan scanMAX; type: binding; settings: 2000 nM; read-out: Percent Control
YSK1 (STK25) = YSK1 (STK25) (Homo sapiens (Human), UniProt O00506); experiment: KINOMEscan scanMAX; type: binding; settings: 2000 nM; read-out: Percent Control
LNCaP-C4-2 cells = experiment: PSA production (ELISA) in LNCaP-C4-2 cells; type: cell-based, human; settings: 4 days treatment, conditioned media
Procedure: Prostate cancer LNCaP-C4-2 cells were treated with different concentrations of the compounds for 4 days and the conditioned media were collected for quantification of prostate specific antigen (PSA) with an ELISA kit.

[2] = tested on: 4T1 murine triple-negative breast cancer; experiment: 4T1 breast cancer metastasis survival model; type: in vivo; settings: 40 mg/kg, oral, b.i.d., female Balb/c mice after primary tumor removal
Procedure: 4T1 is a murine triple-negative breast cancer (TNBC) cell line, which is highly metastatic to the lungs. 4T1 cells were injected orthotopically in the mammary fat pad of female Balb/c mice and the primary tumors were surgically removed when tumor sizes reach 500-600 mm^3. Mice were then separated into two groups (FIG. 12A, n=8), which were then treated with vehicle (5% dextrose) or Senexin C (40 mg/kg, oral, b.i.d.).

CDK8 = CDK8 (Homo sapiens (Human), UniProt P49336); experiment: DiscoverX Kd assay

Chain of ADCK3 (CABC1) (Q8NI60 163-647): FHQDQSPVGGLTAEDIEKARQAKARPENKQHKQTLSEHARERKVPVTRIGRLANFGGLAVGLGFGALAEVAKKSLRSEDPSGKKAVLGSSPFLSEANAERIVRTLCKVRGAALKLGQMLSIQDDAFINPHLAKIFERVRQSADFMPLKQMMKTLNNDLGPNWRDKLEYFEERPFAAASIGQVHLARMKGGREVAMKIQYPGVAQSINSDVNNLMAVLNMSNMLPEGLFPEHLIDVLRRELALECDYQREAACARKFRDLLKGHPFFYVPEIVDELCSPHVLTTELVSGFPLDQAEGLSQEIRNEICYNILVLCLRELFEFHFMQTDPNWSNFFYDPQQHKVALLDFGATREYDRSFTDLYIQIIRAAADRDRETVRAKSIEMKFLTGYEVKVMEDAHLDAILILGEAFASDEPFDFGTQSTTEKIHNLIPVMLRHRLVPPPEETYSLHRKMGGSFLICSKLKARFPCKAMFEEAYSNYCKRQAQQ

In the case of `CN1CCN(C(=O)c2ccc3cc(CCNc4ccnc5ccc(C#N)cc45)ccc3c2)CC1` [compound 6148, 4-((2-(6-(4-methylpiperazine-1-carbonyl)naphthalen-2-yl)ethyl)amino)quinoline-6-carbonitrile], the remaining binding at 2 µM [1] is reported as 90%, the remaining binding at 2 µM (ACVR1B) is reported as 92% and the remaining binding at 2 µM (ADCK3 (CABC1)) is reported as 100%. For the same compound, the remaining binding at 2 µM (ANKK1) was 69%, the remaining binding at 2 µM (AURKB) was 75% and the remaining binding at 2 µM (BIKE (BMP2K)) was 97%. For the same compound, the remaining binding at 2 µM (CAMKK2) was 82%, the remaining binding at 2 µM (CDKL1) was 94% and the remaining binding at 2 µM (CSNK2A1) was 56%. It also gave a remaining binding at 2 µM (DCAMKL1 (DCLK1)) of 63%, a remaining binding at 2 µM (DCAMKL3 (DCLK3)) of 96% and a remaining binding at 2 µM (EGFR(L747-T751del, Sins)) of 74%. The remaining binding at 2 µM (GRK1) was 63%, the remaining binding at 2 µM (ICK) was 54% and the remaining binding at 2 µM (KIT(V559D)) was 95%. The remaining binding at 2 µM (LTK) was 93%, the remaining binding at 2 µM (MEK4 (MAP2K4)) was 58% and the remaining binding at 2 µM (NDR2 (STK38L)) was 96%. It also gave a remaining binding at 2 µM (NEK3) of 60%, a remaining binding at 2 µM (NEK4) of 60% and a remaining binding at 2 µM (PAK3) of 98%. The remaining binding at 2 µM (PDPK1) was 86%, the remaining binding at 2 µM (PIK3CD) was 61% and the remaining binding at 2 µM (PKMYT1) was 100%. The remaining binding at 2 µM (PLK1) was 63%, the remaining binding at 2 µM (PLK2) was 80% and the remaining binding at 2 µM (PRKCH) was 91%. It also gave a remaining binding at 2 µM (RET(V804M)) of 91%, a remaining binding at 2 µM (S6K1 (RPS6KB1)) of 78% and a remaining binding at 2 µM (SRPK1) of 91%. For the same compound, the remaining binding at 2 µM (TTK) was 72%, the remaining binding at 2 µM (YES (YES1)) was 100% and the remaining binding at 2 µM (YSK1 (STK25)) was 83%. For the same compound, the “Potency in inhibition of PSA production relative to Senexin B” value (LNCaP-C4-2 cells) was roughly 3 fold, the “Mouse survival of the metastatic disease” value [2] was “significantly increased” and the Kd (CDK8) was 55 nM.

From US12281080B2, “Quinoline-based compounds and methods of inhibiting CDK8/19” (University of South Carolina, priority 2018, dated 2025)
